Data from patent publication EP4652995A1, “ANTIBACTERIAL COMPOSITION, PHARMACEUTICAL AGENT, AND ANTIBACTERIAL METHOD” (priority 2023, dated 2024).

Tested on: vancomycin resistant E.faecium (VRE)
Assay: In vitro proliferation inhibition of E. faecium (OD600)
Format: cell-based
Details: pH 7.5; 10 µg/mL V-161, 1 µg/mL niclosamide, alone or in combination; NaTY medium, 37°C, 13 hours; OD600 (Fig. 2)

SMILES | proliferation of bacteria
Cc1ccc2[nH]c(-c3ccc(N(C)C)cc3)nc2c1 [Example V-161, N,N-dimethyl-4-(5-methyl-1H-benzo[d]imidazol-2-yl)aniline] | not completely inhibited
O=C(Nc1ccc([N+](=O)[O-])cc1Cl)c1cc(Cl)ccc1O [niclosamide, 5-chloro-2-hydroxy-N-(2-chloro-4-nitrophenyl)benzamide] | not completely inhibited
